According to US4518587A, “Dipeptides of L-5-hydroxytryptophan, processes for their preparation and drugs in which they are present” (S.A. Panmedica, priority 1983, dated 1985):
Read-outs that look alike come from different tables or passages of the source. Square brackets hold non-standard residues; d marks the D form. Peptide text beside a SMILES is read from it. Trp(5-OH) = N[C@@H](Cc1c[nH]c2ccc(O)cc12)C(=O)O

System: brain levels of L-5-hydroxytryptophan (L-5-HTP), serotonin (5-HT) and 5-hydroxyindoleacetic acid (5-HIAA)
Assay: Biochemical analysis of brain levels of L-5-HTP, 5-HT and 5-HIAA one hour after a single dose (technique of CURZON and GREEN)
Format: in vivo, rats
Settings: for change in vivo at 25 mg/kg / change in vivo at 50 mg/kg / change in vivo at 10 mg/kg: Rattus norvegicus, 1 h; for change in vivo at 10 mg/kg: read-out: %, relative to the controls, of L-5-HTP at dose of 10 mg/kg
Protocol: Biochemical analysis of the brain levles of L-5-hydroxytryptophan (L-5-HTP), serotonin (5-HT) and its first metabolite, 5-hydroxyindoleacetic acid (5- HIAA), was carried out one hour after the administration of a single dose to adult rats by the technique of CURZON and GREEN. Three doses were studied, i.e. 10, 25 and 50 mg/kg, 10 animals being used per dose. Table I below indicates the percentage increases in 5-HTP, 5-HT and 5-HIAA relative to the levels found in the control animals: […]

[1] = brain level, adult rats, single dose 10 mg/kg, one hour after administration, percentage increase relative to control animals
[2] = brain level, adult rats, single dose 25 mg/kg, one hour after administration, percentage increase relative to control animals
[3] = brain level, adult rats, single dose 50 mg/kg, one hour after administration, percentage increase relative to control animals
[4] = read-out: %, relative to the controls, of 5-HIAA at dose of 25 mg/kg
[5] = read-out: %, relative to the controls, of 5-HIAA at dose of 50 mg/kg
[6] = brain level, adult rats, single dose 25 mg/kg, one hour after administration, percentage increase relative to control animals, read-out: %, relative to the controls, of 5-HIAA at dose of 25 mg/kg
[7] = brain level, adult rats, single dose 50 mg/kg, one hour after administration, percentage increase relative to control animals, read-out: %, relative to the controls, of 5-HIAA at dose of 50 mg/kg
[8] = brain level, adult rats, single dose 50 mg/kg, one hour after administration, percentage increase relative to control animals, read-out: %, relative to the controls, of 5-HT at dose of 50 mg/kg

For “5-HYDROXY-L-TRYPTOPHAN-L-VALINE [Example 9]”, the “%, relative to the controls, of 5-HIAA at dose of 10 mg/kg” value [1] was 70%, the “%, relative to the controls, of 5-HT at dose of 10 mg/kg” value [1] was 12% and the “%, relative to the controls, of L-5-HTP at dose of 10 mg/kg” value [1] was 300%. For the same compound, the “%, relative to the controls, of 5-HIAA at dose of 25 mg/kg” value [2] was 250%, the “%, relative to the controls, of 5-HT at dose of 25 mg/kg” value [2] was 40% and the “%, relative to the controls, of L-5-HTP at dose of 25 mg/kg” value [2] was 900%. For the same compound, the “%, relative to the controls, of 5-HIAA at dose of 50 mg/kg” value [3] was 320%, the “%, relative to the controls, of 5-HT at dose of 50 mg/kg” value [3] was 45% and the “%, relative to the controls, of L-5-HTP at dose of 50 mg/kg” value [3] was 1700%.

C[C@H](NC(=O)[C@@H](N)Cc1c[nH]c2ccc(O)cc12)C(=O)O.O [Example 8, 5-HYDROXY-L-TRYPTOPHYL-L-ALANINE HYDRATE] (H-[Trp(5-OH)]-Ala-OH) showed a change in vivo at 25 mg/kg [4] of 140%, a change in vivo at 50 mg/kg [5] of 400% and a change in vivo at 10 mg/kg of 200%. For the same compound, the “%, relative to the controls, of 5-HIAA at dose of 10 mg/kg” value [1] was 75% and the “%, relative to the controls, of 5-HT at dose of 25 mg/kg” value [2] was 5%.

For CC(C)C[C@H](NC(=O)[C@@H](N)Cc1c[nH]c2ccc(O)cc12)C(=O)O [Example 10, 5-HYDROXY-L-TRYPTOPHYL-L-LEUCINE] (H-[Trp(5-OH)]-Leu-OH), the change in vivo at 10 mg/kg [1] was 200%, the change in vivo at 25 mg/kg [6] was 100% and the change in vivo at 25 mg/kg (brain level, adult rats, single dose 25 mg/kg, one hour after administration, percentage increase relative to control animals, read-out: %, relative to the controls, of L-5-HTP at dose of 25 mg/kg) was 600%. For the same compound, the change in vivo at 50 mg/kg [7] was 350%, the change in vivo at 50 mg/kg [8] was 45% and the “%, relative to the controls, of 5-HIAA at dose of 10 mg/kg” value [1] was 55%. The “%, relative to the controls, of 5-HT at dose of 25 mg/kg” value [2] was 12%.

“5-Hydroxy-L-tryptophyl-5-hydroxy-L-tryptophan hemihydrate [Example 13]” was tested, and the “%, relative to the controls, of 5-HT at dose of 25 mg/kg” value [2] was 5%, the “%, relative to the controls, of L-5-HTP at dose of 25 mg/kg” value [2] was 50% and the “%, relative to the controls, of 5-HIAA at dose of 50 mg/kg” value [3] was 10%. The “%, relative to the controls, of 5-HT at dose of 50 mg/kg” value [3] was 5% and the “%, relative to the controls, of L-5-HTP at dose of 50 mg/kg” value [3] was 50%.

Work on NC(=O)[C@@H](N)Cc1c[nH]c2ccc(O)cc12.O [Example 21, 5-HYDROXY-L-TRYPT[…], HYDRATE] yielded a change in vivo at 25 mg/kg [4] of 50%, a change in vivo at 50 mg/kg [5] of 170% and a change in vivo at 50 mg/kg (read-out: %, relative to the controls, of 5-HT at dose of 50 mg/kg) of 20%. The change in vivo at 10 mg/kg was 125%, the change in vivo at 25 mg/kg (read-out: %, relative to the controls, of L-5-HTP at dose of 25 mg/kg) was 250% and the change in vivo at 50 mg/kg (read-out: %, relative to the controls, of L-5-HTP at dose of 50 mg/kg) was 700%.

N[C@@H](Cc1c[nH]c2ccc(O)cc12)C(=O)N[C@@H](CO)C(=O)O [Example 16, L-5-HYDROXYTRYPTOPHYL-L-SERINE] (H-[Trp(5-OH)]-Ser-OH) was tested, and the change in vivo at 10 mg/kg [1] was 170%, the change in vivo at 25 mg/kg [6] was 30% and the change in vivo at 50 mg/kg [7] was 150%. The change in vivo at 50 mg/kg [8] was 15%, the change in vivo at 50 mg/kg (brain level, adult rats, single dose 50 mg/kg, one hour after administration, percentage increase relative to control animals, read-out: %, relative to the controls, of L-5-HTP at dose of 50 mg/kg) was 900% and the “%, relative to the controls, of 5-HIAA at dose of 10 mg/kg” value [1] was 10%.

In the case of COC(=O)[C@H](Cc1c[nH]c2ccc(O)cc12)NC(=O)[C@H](Cc1c[nH]c2ccc(O)cc12)NC(C)=O [Example 7, METHYL ESTER OF N-ACETYL-5-HYDROXY-L-TRYPTOPHYL-5-HYDROXY-L-TRYPTOPHAN] (Ac-[Trp(5-OH)]-[Trp(5-OH)]-OMe), the “%, relative to the controls, of 5-HIAA at dose of 10 mg/kg” value [1] is reported as 10%, the “%, relative to the controls, of L-5-HTP at dose of 10 mg/kg” value [1] is reported as 10% and the “%, relative to the controls, of 5-HIAA at dose of 25 mg/kg” value [2] is reported as 20%. The “%, relative to the controls, of 5-HIAA at dose of 50 mg/kg” value [3] was 20% and the “%, relative to the controls, of L-5-HTP at dose of 50 mg/kg” value [3] was 30%.
